One experiment deals with HCT-116. Briefly: Inhibition of tumor cell proliferation, HCT-116. The note with it: Homo sapiens, read-out: Cancer Cell Line (IC50, nM) HCT-116. Format: cell-based, human. The procedure:
(§1) The biological activity of compounds of this invention was evaluated by measuring their inhibitory effect on the proliferation of various tumor cell lines. HCT-116 is a human colon cancer cell line. LNCap is a human prostate cancer cell line. SiHa is an HPV-16 positive human cervical cancer line.

For the next experiment, the system named is A-498. Briefly: Inhibition of tumor cell proliferation, A-498. Format: cell-based. The note with it: Homo sapiens, A498; exposure time 1 h. The procedure: as §1
(§2) Table D presents additional data for the activity of compounds A-1 and A-4 against various cell lines. In some instances, comparative data against leptomycin B (LMB) and/or compound VI (Dong et al., US 2005/0272727 A1 (2005) is also provided.
(§3) The additional cell lines tested against represent a variety of different cancers: bladder cancer (UM-UC-3), breast cancer (BT474, HCC1937, MDA-MB468, NCI-ADR), CNS cancer (U87MG (glioma), SKNSH (neuroblastoma)), colon cancer (LoVo, LS411N, LS513), head and neck cancer (CAL-27, FaDu), leukemia (CCRF-CEM, MOLT-4), liver cancer (HepG2), lung cancer (A549, NCI-H23, NCI-H358), melanoma (Colo829), ovarian cancer (OVCAR-4), pancreatic cancer (BxPC-3, Mia-PaCa2), prostate cancer (22Rv1, PC-3), and renal cancer (A-498, Caki-1).

The next experiment deals with LoVo. Kind of experiment: Inhibition of tumor cell proliferation, LoVo. The settings on record: Homo sapiens, exposure time 1 h. Format: cell-based. As for the experimental part: as §1, §2, §3
A further experiment deals with MDA-MB-468. Kind of experiment: Inhibition of tumor cell proliferation, MDA-MB-468. The experiment is classed as cell-based. The settings on record: Homo sapiens, exposure time 1 h. As for the experimental part:
as §1, §2, §3

The test system of a further experiment is Caki-1. Kind of experiment: Inhibition of tumor cell proliferation, Caki-1. Format: cell-based. The note with it: Homo sapiens, exposure time 1 h. As for the experimental part: as §1, §2, §3
A further experiment relates to CCRF-CEM. Kind of experiment: Inhibition of tumor cell proliferation, CCRF-CEM. The experiment is classed as cell-based. The note with it: Homo sapiens, exposure time 72 h. As for the experimental part: as §1, §2, §3
Another experiment has as its system PC-3. Briefly: Inhibition of tumor cell proliferation, PC-3. The settings on record: Homo sapiens. Format: cell-based. The procedure:
as §1, §2, §3

In the next experiment the test system is NCI-ADR. Briefly: Inhibition of tumor cell proliferation, NCI-ADR. The experiment is classed as cell-based. The note with it: Homo sapiens, NCI/ADR-RES, read-out: IC50, nM, NCI-ADR. The procedure: as §1, §2, §3
The subject of another experiment is MOLT-4. Kind of experiment: Inhibition of tumor cell proliferation, MOLT-4. Format: cell-based. The note with it: Homo sapiens, exposure time 72 h. The procedure:
as §1, §2, §3

The subject of the next experiment is LNCap. Kind of experiment: Inhibition of tumor cell proliferation, LNCap. The experiment is classed as cell-based, human. The settings on record: Homo sapiens, LNCaP, read-out: Cancer Cell Line (IC50, nM) LNCap. As for the experimental part:
as §1

In the next experiment the test system is A549. Kind of experiment: Inhibition of tumor cell proliferation, A549. Format: cell-based. The note with it: Homo sapiens, A549, 1 h, read-out: IC50, nM, A549. As for the experimental part: as §1, §2, §3
In a further experiment the test system is SKNSH. Briefly: Inhibition of tumor cell proliferation, SKNSH. Format: cell-based. The note with it: Homo sapiens, SK-N-SH, read-out: IC50, nM, SKNSH. The procedure: as §1, §2, §3
For another experiment, the system named is SiHa. Briefly: Inhibition of tumor cell proliferation, SiHa. The experiment is classed as cell-based, human. The settings on record: Homo sapiens, SiHa, read-out: Cancer Cell Line (IC50, nM) SiHa. As for the experimental part: as §1
The next experiment deals with CRM1 substrate RanBP1. Kind of experiment: Nuclear export block (RanBP1 localization, recovery after compound removal). The experiment is classed as cell-based. The note with it: recovery of cytoplasmic RanBP1 localization after compound washout (typically 1 h exposure; 8, 24 or 48 h recovery). The procedure:
The nuclear export blocking capability of compounds of this invention was evaluated as follows:
1-5×10^4 cells were seeded onto 12 mm glass coverslips or wells of a chamber slide (for example, Lab-Tek #177445). Cells were grown overnight at 37° C. to allow cells to attach to the surface. Media was removed and replaced with media containing the desired test compound and incubated the required time period (typically 1 h). For recovery experiments, cells were washed with PBS or media and incubated in media without test compound for the desired recovery periods (typically 8, 24, or 48 h). The media was removed and coverslips/wells were washed with PBS pH 7.4 for 1 minute. Coverslips or slides were fixed with 3.7% formaldehyde in PBS for 20 minutes at room temperature, washed three times in PBS, and stained for the CRM1 substrate RanBP1.
Coverslips or chamber slides were permeabilized and blocked in 10% donkey serum, 0.1% Triton X-100 in PBS for 30 minutes at room temperature. Primary antibodies were diluted in PBS and incubated for 1 hour at room temperature: goat-anti-RanBP1 (Santa Cruz Biotechnology, sc-1160; 1:50 dilution) and mouse-anti-tubulin (Sigma, T9026; 1:400). Cells were washed 3×5 minutes in PBS. Secondary antibodies donkey-anti-goat Cy3 (705-165-147, Jackson Immunoresearch) and donkey anti-mouse FITC (715-095-150, Jackson Immunoresearch) were diluted 1:200 in PBS and incubated for 1 hour at room temperature. Secondary antibody was removed and cells were stained with a nuclear dye such as DAPI (Sigma, D8417; 2.5 ug/mL in PBS) or Hoechst 33342 (Molecular Probes, H3570; 100 ng/mL in PBS) for 5 minutes at room temperature. Cells were washed 3×5 minutes in PBS and coverslips were mounted with FluorSave (EMD Biosciences, 80058-108). Nuclear (N) or cytoplasmic (C) localization of RanBP1 was examined using a 40× objective on a Zeiss Axiovert 200 inverted epiflourescence microscope. Nuclear localization (N>C) was confirmed after the initial drugging period.

Read-outs that look alike come from different tables or passages of the source.

As usually defined, the IC50 is the point on the concentration scale where inhibition reaches its midpoint. Regarding `CC(=C/[C@H](C)C/C=C/C(C)=C/[C@@H](C)C(=O)[C@@H](C)[C@H](O)[C@@H](C)C/C(C)=C/COC(=O)NCc1ccccc1)/C=C/[C@H]1CC=CC(=O)O1` [Compound A-1], the IC50 in the experiment on HCT-116 (HCT-116, 1 h) came to 14.9 nM; with HCT-116 (HCT-116, 72 h), 3.3 nM; with A-498, 16 nM; in the experiment on LoVo it was 10.3 nM; in the experiment on MDA-MB-468, 30.6 nM; in the experiment on Caki-1, 6.6 nM. Also, the IC50 came out at 4.2 nM with CCRF-CEM; 7.4 nM in the experiment on PC-3 (exposure time 1 h); 2.7 nM in the experiment with PC-3 (exposure time 72 h); 194 nM in the experiment with NCI-ADR (1 h); 20.6 nM in the experiment with NCI-ADR (72 h); 3.2 nM in the experiment with MOLT-4. Besides, the IC50 in the experiment with LNCap (1 h) was 4.7 nM; with LNCap (72 h), 1.8 nM; with A549, 23.5 nM; in the experiment with SKNSH (1 h), 5.1 nM; in the experiment with SKNSH (72 h) it was 1.5 nM; in the experiment on SiHa (1 h), 3.6 nM. In addition, the IC50 in the experiment on SiHa (72 h) turned out to be 1.1 nM. The “Nuclear Export Block” value with CRM1 substrate RanBP1 is listed as “Slow recovery”.
